Data set [1] deals with Hepatitis C virus. Briefly: Antiviral activity against HCV genotype 1b infected in human HuH7 cells assessed as inhibition of viral RNA replication after 72 hrs by luciferase reporter gene assay. Type of data set: functional, organism-based, Hepacivirus hominis. To be noted: Huh-7, 72 h. (Reporter assays use an easily measured gene product as a stand-in for the process of interest.)

Data set [2] is described as follows: Cytotoxicity against human HuH7 cells after 72 hrs by MTT assay. In kind it is cell-based, Huh-7. Background: Formazan colour is commonly taken as a measure of viable cells.
Data set [3] can be described thus: Cytotoxicity against human LO2 cells after 72 hrs by MTT assay. Type of data set: cell-based, L02.
Data set [4] is described as follows: Cytotoxicity against human HEK293 cells after 72 hrs by MTT assay. Type of data set: cell-based.
Data set [5] in a line: Selectivity index, ratio of CC50 for human HuH7 cells to EC50 for HCV genotype 1b infected in human HuH7 cells. On the set-up: species or system Huh-7.

Molecules are shown by their SMILES.

The term EC50 denotes the concentration that produces a half-maximal response. In general, CC50 refers to the concentration at which the toxic effect on the cells reaches its halfway point.

Regarding `CCOC(=O)c1oc2nc(-c3cccs3)cc(C(F)(F)F)c2c1N`, in data set [1], the EC50 was 18.5 µM. This compound displayed a CC50 at 72 h in data set [2] above 20 µM.
For `Nc1c(C(=O)N2CCOCC2)sc2nc(C3CC3)cc(C(F)(F)F)c12` the same measures were 9.7 µM and above 20 µM.
`Nc1c(C(=O)NCc2cccs2)oc2nc(-c3ccccc3)cc(C(F)(F)F)c12`: the EC50 in data set [1] was found to be 9.8 µM. In addition, in data set [2], the CC50 at 72 h is above 20 µM.
For `CCOC(=O)c1sc2nc(-c3cccs3)cc(C(F)(F)F)c2c1N` the same measures were 10 µM and above 20 µM.
Take `Nc1c(C(=O)N2CCSCC2)sc2nc(-c3ccccc3)cc(C(F)(F)F)c12`: in data set [1], the EC50 came out at 7.2 µM. This compound also came in with a CC50 at 72 h in data set [2] above 20 µM.
For `COc1ccccc1-c1cc(C(F)(F)F)c2c(N)c(C(N)=O)sc2n1` the same measures were 14.3 µM and above 20 µM.
The matching figures for `COc1ccccc1-c1cc(C(F)(F)F)c2c(N)c(C(=O)N3CCOCC3)sc2n1`: 8.3 µM and above 20 µM.
For `Nc1c(C(=O)N2CCn3c(nnc3C(F)(F)F)C2)sc2nc(-c3ccccc3)cc(C(F)(F)F)c12`, the CC50 at 72 h in data set [3] turned out to be 40.7 µM; in data set [4], 28 µM; in data set [2], 45.2 µM. Besides, the “Ratio CC50/EC50” value in data set [5] was found to be 13.7. For the same compound, the EC50 in data set [1] turned out to be 3.3 µM.
For the compound `Nc1c(C(=O)N2CCOCC2)sc2nc(-c3nccs3)cc(C(F)(F)F)c12`, the EC50 in data set [1] turned out to be 8.9 µM. The CC50 at 72 h in data set [2] was above 20 µM.
`NC(=O)c1sc2nc(C3CC3)cc(C(F)(F)F)c2c1N`: the EC50 in data set [1] worked out at 12.2 µM. Further, the CC50 at 72 h in data set [2] is above 20 µM.
For `Nc1c(C(=O)N2CCOCC2)sc2nc(-c3cccc(F)c3)cc(C(F)(F)F)c12` the same measures were 6.7 µM and above 20 µM.
`COc1ccc(-c2ccc3c(N)c(C(N)=O)sc3n2)cc1`: in data set [1], the EC50 was above 20 µM. In addition, the CC50 at 72 h in data set [2] was below 0.4 µM.
The matching figures for `CN(C)C(=O)c1sc2nc(-c3ccccc3)cc(C(F)(F)F)c2c1N`: 8.2 µM and above 20 µM.
As for `Nc1c(C(=O)N2CCOCC2)sc2nc(-c3cccs3)cc(C(F)(F)F)c12`, in data set [1], the EC50 is 6.5 µM. Also, the CC50 at 72 h in data set [2] is above 20 µM.
Consider `CCOC(=O)c1sc2nc(C3CC3)cc(C(F)(F)F)c2c1N`, for which the EC50 in data set [1] is 6.8 µM. This compound registered a CC50 at 72 h in data set [2] above 20 µM.
The matching figures for `Nc1c(C(=O)O)sc2nc(-c3ccccc3)cc(C(F)(F)F)c12`: above 20 µM and above 20 µM.
For `Nc1c(C(=O)N2CCc3sccc3C2)sc2nc(-c3ccccc3)cc(C(F)(F)F)c12` the same measures were 12.5 µM and above 20 µM.
As to `COc1cccc(-c2cc(C(F)(F)F)c3c(N)c(C(=O)N4CCOCC4)sc3n2)c1`, the EC50 in data set [1] was found to be 10.8 µM. In data set [2], this compound registered a CC50 at 72 h above 20 µM.
For `Nc1c(C(=O)NC2CCCC2)sc2nc(-c3ccccc3)cc(C(F)(F)F)c12`, the EC50 in data set [1] was 5.5 µM. Moreover, the CC50 at 72 h in data set [2] is above 20 µM.
For the compound `O=C(c1cc2c(C(F)(F)F)cc(-c3ccccc3)nc2s1)N1CCOCC1`, the figures for the CC50 at 72 h in data set [3], in data set [4] and in data set [2] were above 100 µM, 92.6 µM and above 100 µM, respectively. For the same compound, the “Ratio CC50/EC50” value in data set [5] was above 22.2. Also, in data set [1], the EC50 came out at 4.5 µM.
With `CN1CCN(C(=O)c2sc3nc(-c4ccccc4)cc(C(F)(F)F)c3c2N)CC1`, the EC50 in data set [1] was 11.4 µM. Moreover, the CC50 at 72 h in data set [2] was above 20 µM.
The matching figures for `Nc1c(C(=O)N2CCOCC2)sc2nc(-c3ccccc3)ccc12`: 17.2 µM and above 20 µM.
As for `Nc1c(C(=O)N2CCOCC2)sc2nc(-c3ccccc3)cc(C(F)(F)F)c12`, the CC50 at 72 h in data set [3] is 94.4 µM; in data set [4] it was 85.1 µM; in data set [2], above 100 µM. In addition, the “Ratio CC50/EC50” value in data set [5] is reported as above 30.3. In addition, the EC50 in data set [1] was 3.3 µM.
As to `Nc1c(C(=O)N2CCOCC2)sc2nc(-c3ccc(Cl)c(Cl)c3)cc(C(F)(F)F)c12`, the EC50 in data set [1] is above 20 µM. In data set [2], this compound had a CC50 at 72 h above 20 µM.
`COc1ccccc1-c1ccc2c(N)c(C(N)=O)sc2n1`: in data set [1], the EC50 is above 20 µM. Besides, the CC50 at 72 h in data set [2] was above 20 µM.
`Nc1c(C(=O)N2CCCCC2)sc2nc(-c3ccccc3)cc(C(F)(F)F)c12`: the EC50 in data set [1] was determined as 5.9 µM. The CC50 at 72 h in data set [2] is above 20 µM.
The matching figures for `COc1ccc(-c2cc(C(F)(F)F)c3c(N)c(C(=O)N4CCOCC4)sc3n2)cc1`: 10.3 µM and above 20 µM.
For `Nc1c(C(=O)NCc2ccccc2)sc2nc(-c3ccccc3)cc(C(F)(F)F)c12` the same measures were above 20 µM and above 20 µM.
The matching figures for `Nc1c(C(=O)N2CCOCC2)oc2nc(-c3ccccc3)cc(C(F)(F)F)c12`: 11.2 µM and above 20 µM.
For `CCOC(=O)c1oc2nc(-c3ccccc3)cc(C(F)(F)F)c2c1N`, the EC50 in data set [1] amounted to 6.8 µM. The compound further showed a CC50 at 72 h in data set [2] above 20 µM.
The matching figures for `Nc1c(C(=O)N2CCC(=O)CC2)sc2nc(-c3ccccc3)cc(C(F)(F)F)c12`: above 20 µM and above 20 µM.
The matching figures for `COc1cccc(-c2ccc3c(N)c(C(N)=O)sc3n2)c1`: above 20 µM and below 0.4 µM.
For `CC(C)(C)OC(=O)N1CCN(C(=O)c2sc3nc(-c4ccccc4)cc(C(F)(F)F)c3c2N)CC1` the same measures were above 20 µM and above 20 µM.
Take `CCOC(=O)c1sc2nc(-c3ccccc3)cc(C(F)(F)F)c2c1N`: the EC50 in data set [1] was 19.3 µM. In data set [2], this compound gave a CC50 at 72 h above 20 µM.
The matching figures for `Nc1c(C(=O)N2CCOCC2)sc2nc(-c3ccccc3F)cc(C(F)(F)F)c12`: 17.6 µM and above 20 µM.
On to `Nc1c(C(=O)N2CCNCC2)sc2nc(-c3ccccc3)cc(C(F)(F)F)c12`, for which, in data set [1], the EC50 amounted to 9.6 µM. The compound further returned a CC50 at 72 h in data set [2] above 20 µM.
Take `Nc1c(C(=O)N2CCOCC2)sc2nc3c(c(C(F)(F)F)c12)CCc1ccccc1-3`: the CC50 at 72 h was above 100 µM in data set [3], 72.7 µM in data set [4] and above 100 µM in data set [2]. Moreover, the “Ratio CC50/EC50” value in data set [5] is given as above 25.6. Besides, the EC50 in data set [1] stood at 3.9 µM.
As to `Nc1c(C(=O)N2CCOCC2)sc2nc(-c3ccc(F)cc3)cc(C(F)(F)F)c12`, the EC50 in data set [1] amounted to 18.6 µM. The CC50 at 72 h in data set [2] is above 20 µM.
The matching figures for `CCOC(=O)c1sc2nc(-c3ccco3)cc(C(F)(F)F)c2c1N`: 5.7 µM and above 20 µM.
Consider `Nc1c(C(=O)NCc2cccs2)sc2nc(-c3ccccc3)cc(C(F)(F)F)c12`, for which the EC50 in data set [1] amounted to 8.2 µM. The same compound had a CC50 at 72 h in data set [2] above 20 µM.
Consider `NC(=O)c1sc2nc(-c3ccccc3)cc(C(F)(F)F)c2c1N`, for which the EC50 in data set [1] stood at 8.2 µM. In data set [2], this compound yielded a CC50 at 72 h above 20 µM.
On to `CCN(CC)C(=O)c1sc2nc(-c3ccccc3)cc(C(F)(F)F)c2c1N`, for which the CC50 at 72 h in data set [3], in data set [4] and in data set [2] was above 100 µM throughout. The “Ratio CC50/EC50” value in data set [5] is listed as above 28.6. Further, the EC50 in data set [1] is 3.5 µM.
In the case of `Nc1c(C(=O)N2CCOCC2)sc2nc(-c3cnccn3)cc(C(F)(F)F)c12`, in data set [1], the EC50 was above 20 µM. The compound also had a CC50 at 72 h in data set [2] above 20 µM.
For `Cc1cc(-c2ccccc2)nc2sc(C(=O)N3CCOCC3)c(N)c12`, the EC50 in data set [1] was found to be 5.8 µM. Moreover, the CC50 at 72 h in data set [2] was above 20 µM.
For `Nc1c(C(=O)N2CCOCC2)sc2nc(-c3ccco3)cc(C(F)(F)F)c12`, the EC50 in data set [1] turned out to be 9.6 µM. For the same compound, the CC50 at 72 h in data set [2] is above 20 µM.

Values taken from ChEMBL document CHEMBL3124910, “Discovery and structure-activity relationships study of novel thieno[2,3-b]pyridine analogues as hepatitis C virus inhibitors” (Bioorg Med Chem Lett, 2014).
